Where two headings read alike, the source gives them in different places.
Columns and labels:
[1] = molecular target: T1, human serotonin 5-HT2B receptor (Homo sapiens, UniProt P41595); assay: Stimulating activities on human serotonin 5-HT2B receptor, intracellular calcium in forced expression HEK293 cells; type: cell-based
T1 construct: expressed in transfected cells; host or cells: HEK293, transient transfection (Lipofectamine 2000)
Description: Identification Test of Stimulating Activities on Human Serotonin 5-HT2B Receptor
The PCR was performed using forward primer depicted as sequence ID No. 4, reverse primer depicted as sequence ID No. 5 and KOD-Plus-Ver.2 (TOYOBO) as template of human brain hippocampus cDNA (Clontech). The PCR product was inserted into a plasmid (pcDNA3.1/V5-His-Topo (registered mark)). The PCR product-inserted plasmid was transformed in E. coli (One Shot TOP10 Chemically Competent). That E. coli was incubated in LB agar medium contained 50 μg/mL ampicillin for a day. A selected colony was incubated in LB medium contained 50 μg/mL ampicillin and PCR product-inserted plasmid was purified with QIAprep Spin Miniprep Kit (QIAGEN).
Mostly confluent HEK293 cells were washed with PBS, followed by exfoliation with 0.05% trypsin-EDTA and the cells were suspended in D-MEM liquid medium (phenol red-free, low glucose, pyruvic acid were contained) containing fetal bovine serum (final concentration: 10%) and GlutaMax (registered mark)I (final concentration: 2 mM). The suspension was scattered at 5×10^4 cells/100 L/well on poly-D-lysine-coated 96-well microplate (BD BioCoat (registered mark)). The scattered cells were cultured in 5% CO2 incubator at 37° C. Human serotonin 5-HT2B receptor expression plasmid was transfected in that cells according to the procedure seeing below.
Human serotonin 5-HT2B receptor expression plasmid and Lipofectamine (registered mark) 2000 (Invitrogen) were diluted to 0.008 g/L and 0.016 g/L each other with OPTI-MEM (registered mark)I Reduced-Serum Medium and incubated at room temperature. After incubation, the human serotonin 5-HT2B receptor exoression plasmid-diluted liquid and Lipofectamine (registered mark) 2000-diluted liquid were mixed at an equal volume and incubated at room temperature to form a complex. The complex was dispensed at 50 μL/well on the cells prepared above. The cells were incubated in 5% CO2 incubator at 37° C. for 2 days. After incubation, the cells were used as human serotonin 5-HT2B receptor forced expression cells for measurement of intracellular calcium concentration.
3) Determination of Stimulating Activities of Human Serotonin 5-HT2B Receptor
The stimulating activities of human serotonin 5-HT2B receptor was determined by measuring of intracellular calcium concentration. The 30 mM dimethyl sulfoxide (DMSO) solution contained test compounds or serotonin hydrochloride (Sigma) as positive control, was diluted with assay buffer ((HBSS), 20 mM HEPES, 1.3 mM calcium chloride, 0.5 mM magnesium chloride and 0.4 mM magnesium sulfate were contained, pH7.4) to appropriate concentration.
The forced expression cells were washed with assay buffer, and 100 μL/well of fluorescent calcium indicator (Fluo-4 NW Calcium Assay Kit) was added and incubated in 5% CO2 incubator at 37° C. After incubation, 50 μL/well of each test compound was added, and the concentration of intracellular calcium was measured as fluorescent signal with FlexStation (registered mark) II (Molecular Devices). The data was analyzed by nonlinear regression and sigmoidal dose-response curve fitting using GraphPad PRISM 4.0, and values of EC50 (concentration of the compound producing half the maximal effect of the compound) were calculated. The data was presented as mean value (n=2).

[2] = test system: unilateral 6-OHDA-lesioned hemi-Parkinsonian rats; assay: Contralateral rotational behavior in unilateral 6-hydroxydopamine-lesioned hemi-parkinsonian rats; type: in vivo, rat (male Sprague-Dawley); conditions: 10 mg/kg oral, fasted rats, observed up to 24 hours, mean; for Total number or rotations: contralateral rotations; for Duration: duration of contralateral rotation response
Description: 6-OHDA was dissolved at 2 mg/mL in a physiolosical saline solution containing 0.2% L-ascorbic acid. Desipramine was dissolved at 10 mg/mL in a physiolosical saline solution in a hot-water bath. Apomorphine was dissolved at 0.1 mg/mL in a physiolosical saline solution. […] Test compounds were dissolved in a solution containing 2% DMA, 100 or 200 mol % hydrochloric acid, and 98% of a 0.5% methyl cellulose solution. […] (Eur J Pharmacol, 2000, vol. 408, P. 249-255) with a minor modification. Male Sprague-Dawley rats (6-weeks-old, Charles River Laboratories Japan Inc.) were anaesthetized with intraperitoneal somnopentyl (45 mg/kg) injection and placed in a stereotaxic frame (Narishige). In order to prevent 6-OHDA-induced damage of noradrenergic neurons, desipramine (25 mg/kg) was intraperitoneally injected 30 minutes before the 6-OHDA injection. After the bregma identification via a middle calvarial incision, the skull was drilled using a dental drill at the site of 6-OHDA injection. The lesion was made by injecting 6-OHDA (8 μg in 4 μL at a speed of 1 μL/minute) unilaterally into the left medial forebrain bundle by using a injection cannula (30 gauge needle) connected to a microsyringe (Hamilton) (the lesion coordinates; A/P −2.5 mm, L/M −1.8 mm, and V/D −8.0 mm, from the bregma point and surface of the skull). The cannula was carefully removed from the animal after keeping placed on the lesion site for 5 minutes. The skull was filled its hole with dental cement, disinfected, and the scalp incision was surgically sutured. Animals recovered from anesthesia were housed as usual until the day of the experiment. 3) Determining of Contralateral Rotational Behavior Three weeks after the lesion, rats were tested on the basis of their contralateral rotational behavior (single rotation was defined as a 360° turn) in response to 0.1 mg/kg apomorphine given subcutaneously. For behavioral observation, rats were placed in plastic cylinders of a diameter of 30 cm, and its contralateral rotational behaviors were videotaped and quantified by rat-rotation auto counting system R-RACS (Kissei Wellcom). On the experimental day, animals were fasted overnight, and test compounds were orally administrated at doses of 10 mg/kg. […] Total number of rotations and the duration of the response in experimental period were presented as mean value.

[3] = intracellular calcium (Fluo-4), HEK293 cells transiently expressing human 5-HT2B receptor, mean, n=2, read-out: EC50

T1 sequence (P41595 whole entry): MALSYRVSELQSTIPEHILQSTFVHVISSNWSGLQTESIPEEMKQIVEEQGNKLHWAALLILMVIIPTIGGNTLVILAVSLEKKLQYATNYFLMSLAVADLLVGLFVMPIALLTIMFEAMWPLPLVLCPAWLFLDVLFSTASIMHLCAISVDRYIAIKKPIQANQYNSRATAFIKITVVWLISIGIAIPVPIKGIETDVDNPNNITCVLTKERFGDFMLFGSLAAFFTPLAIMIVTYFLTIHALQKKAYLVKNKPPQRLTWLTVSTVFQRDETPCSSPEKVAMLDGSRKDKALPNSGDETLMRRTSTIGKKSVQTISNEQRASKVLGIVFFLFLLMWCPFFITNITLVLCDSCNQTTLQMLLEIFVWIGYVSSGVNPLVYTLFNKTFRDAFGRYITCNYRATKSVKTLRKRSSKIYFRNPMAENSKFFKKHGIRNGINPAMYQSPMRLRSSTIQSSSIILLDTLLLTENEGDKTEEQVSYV

Row | Compound | EC50 [1, 3] [µM] | Total number or rotations [2] | Duration [2] [min] | EC50 [1] [µM]
1 | CCCCN(C(=O)NCCN1CCCCC1)C(=O)[C@@H]1C[C@@H]2Cc3c(sc(N)c3C#N)C[C@H]2N(C)C1 (relative stereo) [1-46, 1-{[(4aR*,6R*,8aR*)-2-amino-3-cyano-8-methyl-4H,4aH,5H,6H,7H,8H,8aH,9H-thieno[3,2-g]quinolin-6-yl]carbonyl}-1-butyl-3-[2-(piperidin-1-yl)ethyl]urea] | > 10 | 10329.8 | 1158.8 | 
2 | CCN(C(=O)NCC(C)(C)CN(C)C)C(=O)[C@@H]1C[C@@H]2Cc3c(sc(N)c3C#N)C[C@H]2N(C)C1 [1-4, 1-{[(4aR,6R,8aR)-2-amino-3-cyano-8-methyl-4H,4aH,5H,6H,7H,8H,8aH,9H-thieno[3,2-g]quinolin-6-yl]carbonyl}-3-[3-(dimethylamino)-2,2-dimethylpropyl]-1-ethlylurea] | > 10 | 6338.8 | 1131.3 | 
3 | CCN(C(=O)N[C@@H](C)CN(C)C)C(=O)[C@@H]1C[C@@H]2Cc3c(sc(N)c3C#N)C[C@H]2N(C)C1 [1-57, 1-{[(4aR,6R,8aR)-2-amino-3-cyano-8-methyl-4H,4aH,5H,6H, 7H,8H,8aH,9H-thieno[3,2-g]quinolin-6-yl]carbonyl}-3-[(2S)-1-(dimethylamino)propan-2-yl]-1-ethylurea] | > 10 | 9976.5 | 1190.0 | 
4 | CCN(C(=O)NCCN(C)C)C(=O)[C@@H]1C[C@@H]2Cc3c(sc(N)c3C#N)C[C@H]2N(C)C1 [1-108, 1-{[(4aR,6R,8aR)-2-amino-3-cyano-8-methyl-4H,4aH,5H,6H,7H,8H,8aH,9H-thieno[3,2-g]quinolin-6-yl]carbonyl}-3-[2-(dimethylamino)ethyl]-1-ethylurea] | > 10 | 2577.5 | 698.8 | 
5 | CCCN(CCC)CCc1cccc2c1CC(=O)N2 [Ropinirole, ropinirole, reference compound] |  | 276.3 | 61.3 | 2.59

Continued, in another order:

Row | EC50 [1, 3] [µM] | Compound | Total number or rotations [2] | Duration [2] [min] | EC50 [1] [µM]
6 | > 10 | CCCCN(C(=O)NCCN(C)C)C(=O)[C@@H]1C[C@@H]2Cc3c(sc(N)c3C#N)C[C@H]2N(C)C1 (relative stereo) [1-24, 1-{[(4aR*,6R*,8aR*)-2-amino-3-cyano-8-methyl-4H,4aH,5H,6H,7H,8H,8aH,9H-thieno[3,2-g]quinolin-6-yl]carbonyl}-1-butyl-3-[2-(dimethylamino)ethyl]urea] | 5230.0 | 766.3 | 
7 | > 10 | CC(C)CCN(C(=O)NCCN(C)C)C(=O)[C@@H]1C[C@@H]2Cc3c(sc(N)c3C#N)C[C@H]2N(C)C1 (relative stereo) [1-43, 1-{[(4aR*,6R*,8aR*)-2-amino-3-cyano-8-methyl-4H,4aH,5H,6H,7H,8H,8aH,9H-thieno[3,2-g]quinolin-6-yl]carbonyl}-3-[2-(dimethylamino)ethyl]-1-(3-methylbutyl)urea] | 7557.5 | 843.8 | 
8 | > 10 | CCCN(C(=O)NCCN(C)C)C(=O)[C@@H]1C[C@@H]2Cc3c(sc(N)c3C#N)C[C@H]2N(C)C1 [1-1, 1-{[(4aR,6R,8aR)-2-amino-3-cyano-8-methyl-4H,4aH,5H, 6H,7H,8H,8aH,9H-thieno[3,2-g]quinolin-6-yl]carbonyl}-3-[2-(dimethylamino)ethyl]-1-propylurea] | 9431.8 | 1101.3 | 
9 | > 10 | CCCCN(C(=O)NCCN(CC)CC)C(=O)[C@@H]1C[C@@H]2Cc3c(sc(N)c3C#N)C[C@H]2N(C)C1 [1-3, 1-{[(4aR,6R,8aR)-2-amino-3-cyano-8-methyl-4H,4aH,5H,6H,7H,8H,8aH,9H-thieno[3,2-g]quinolin-6-yl]carbonyl}-1-butyl-3-[2-(diethylamino)ethyl]urea] | 4478.3 | 845.0 | 
